In ChEMBL document CHEMBL5726922, “Chemokine CXCR1 and CXCR2 receptor antagonist compounds, and use thereof in the treatment of chemokine-mediated pathologies” (2019):

Tests used:
[1] = molecular target: T1, C-X-C chemokine receptor type 2 (Homo sapiens, UniProt P25025); test: (§1) J. Immunol. 170: 2904-2911).To evaluate the direct interaction of the CXCR2 or CXCR1 receptor with β-arrestin 2, a test of β-arrestin 2 recruitment for CXCR2 or CXCR1 based on complementation of the β-galactosidase enzyme (Olson K. R., Eglen R. M., Beta-galactosidase complementation: a cell-based luminescent assay platform for drug discovery. Assay Drug Dev. Technol. 2007 February; 5(1); 137-44), as established by DiscoveRx Corporation was used. Stimulation of these two cell lines with CXCL8 (10 nM) induces the recruitment of β-arrestin 2, as indicated by a significant increase in the induction factor. All the CXCR2 antagonists are tested in a dose-dependent manner and the concentration corresponding to 50% inhibition of the response is determined (IC50=concentration of half-inhibition).β-Arrestin Recruitment Test: “PathHunter HEK293-CXCR2” or “U2OS hCXCR1 β-arrestin” cells (DiscoveRx Corporation) were seeded overnight at 10 000 cells/well (384-well format) in 20 μl of Opti MEM I medium. Preincubation with the antagonist or the vehicle for 30 minutes at 37° C. and 5% CO2 was followed by 60 minutes of stimulation with CXCL8 at 37° C. and 5% CO2. The cells were then placed at room temperature for 30 minutes. The PathHunter detection reagent (DiscoveRx Corporation) was added. […]
T1 sequence (P25025 whole entry): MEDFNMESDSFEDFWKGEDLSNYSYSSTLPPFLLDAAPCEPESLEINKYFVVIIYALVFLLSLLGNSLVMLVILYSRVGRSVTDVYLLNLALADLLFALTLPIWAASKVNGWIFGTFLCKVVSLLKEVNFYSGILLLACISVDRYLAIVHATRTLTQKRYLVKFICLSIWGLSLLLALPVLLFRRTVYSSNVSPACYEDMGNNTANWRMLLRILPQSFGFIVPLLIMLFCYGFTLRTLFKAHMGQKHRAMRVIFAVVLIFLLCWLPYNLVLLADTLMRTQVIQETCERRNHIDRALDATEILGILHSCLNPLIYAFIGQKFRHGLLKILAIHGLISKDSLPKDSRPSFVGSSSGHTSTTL

[2] = molecular target: T2, C-X-C chemokine receptor type 1 (Homo sapiens, UniProt P25024); test: as §1
T2 sequence (P25024 whole entry): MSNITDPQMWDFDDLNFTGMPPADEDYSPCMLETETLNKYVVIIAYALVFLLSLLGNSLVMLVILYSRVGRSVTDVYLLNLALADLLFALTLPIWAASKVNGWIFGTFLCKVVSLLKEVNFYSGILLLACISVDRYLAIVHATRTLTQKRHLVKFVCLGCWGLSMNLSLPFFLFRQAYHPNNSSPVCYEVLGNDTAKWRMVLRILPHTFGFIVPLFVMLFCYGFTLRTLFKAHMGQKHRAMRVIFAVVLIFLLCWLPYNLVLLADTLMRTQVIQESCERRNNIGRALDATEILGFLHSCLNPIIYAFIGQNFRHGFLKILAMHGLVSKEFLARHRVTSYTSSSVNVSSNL

Question: Which IC50 [1] does the source give for `CC[C@@H](Nc1c(Nc2ccc(Cl)c(S(C)(=O)=NCCN(C)C)c2O)c(=O)c1=O)c1ccc(C)o1` (some centres not stated) here?
Answer: > 20 nM

Question: What about the IC50 [2] of the same compound?
Answer: > 200 nM
